Our source for the inhibition values is US8466089B2, “Pyrazole compounds, process for their production and herbicides containing them” (Ishihara Sangyo Kaisha, Ltd., priority 2008, dated 2013).

Format in all cases: in vivo
Experiment [1] deals with barnyardgrass (Echinochloa oryzicola vasing.). In words: Test Example 3, paddy field pot, application to irrigated water. Conditions: applied at 0.5 leaf stage, 13th to 17th day after application, read-out: Growth inhibition rate (%) barnyard grass. From the text:
(§1) Paddy field soil was put into a 1/1,000,000 hectare pot, and seeds of barnyardgrass (Echinochloa oryzicola vasing.) and Japanese bulrush (Scirpus juncoides) were sown and lightly covered with soil. Then, pot was left to stand in a greenhouse in a state irrigated to a water depth of from 0.5 to 1 cm, and next day or two days later, tubers of Japanese ribbon waparo (Sagittaria pygmaea) were planted. Then, the irrigated water depth was maintained to be from 3 to 4 cm, and when barnyardgrass and Japanese bulrush reached 0.5 leaf stage, and Japanese ribbon waparo reached primary leaf stage, a water diluted solution of a wettable powder or an emulsifiable concentrate of the compound of the present invention prepared in accordance with a conventional preparation method, was uniformly dropwise applied by a pipette so that the amount of active ingredients would be a prescribed amount. Further, paddy field soil was put into a 1/1,000,000 pot, followed by soil puddling to an irrigated water depth of from 3 to 4 cm. Next day, rice (Oryza sativa L.) (var.: Nihonbare) of two leaf stage was transplanted in a transplantation depth of 3 cm. On the 4th day after transplantation, the compound of the present invention was applied in the same manner as described above.
(§2) On the 13th to 17th day after application, the state of growth of barnyardgrass, Japanese bulrush and Japanese ribbon waparo was visually observed, and on the 20th to 23rd day after application, the state of growth of rice was visually observed, and the herbicidal effect was evaluated by a growth inhibition rate (%) of 0 (equivalent to the non-treated area) to 100% (complete kill).

Experiment [2] deals with Japanese bulrush (Scirpus juncoides). The description is as above. Conditions: Schoenoplectiella juncoides, applied at 0.5 leaf stage, 13th to 17th day after application, read-out: Growth inhibition rate (%) Japanese bulrush.
Text: as §1, §2

The test system of experiment [3] is Japanese ribbon waparo (Sagittaria pygmaea). The description is as above. As to conditions: applied at primary leaf stage, 13th to 17th day after application, read-out: Growth inhibition rate (%) Japanese ribbon waparo.
Text: as §1, §2

Experiment [4] deals with prickly sida (Sida spinosa L.). In words: Test Example 2, soil application on the day after sowing. Conditions: 21st to 22nd day after application, visual, read-out: Growth inhibition rate (%) Prickly sida. From the text: (§3) Upland field soil was put into a 1/170,000 hectare pot, and seeds of various plants (barnyardgrass (Echinochloa crus-galli L.), crabgrass (Digitaria sanquinalis L.), green foxtail (Setaria viridis L.), redroot pigweed (Amaranthus retroflexus L.), prickly sida (Sida spinosa L.), velvetleaf (Abutilon theophrasti MEDIC.), rice (Oryza sativa L.), corn (Zea mays L.), soybean (Glycine max Merr.)) and wheat (Triticum spp.) were sown. On the day after sowing, wettable powders or emulsifiable concentrates of the compounds of the present invention prepared in accordance with a conventional preparation method, were weighed so that the active ingredients became the prescribed amounts, and diluted with water in an amount corresponding to 500 liter per 1 hectare, followed by soil application with a small sprayer.
(§4) On the 21st to 22nd day after the application, the state of growth of the respective plants was visually observed, and the herbicidal effect was evaluated by a growth inhibition rate (%) of from 0 (equivalent to the non-treated area) to 100% (complete kill).

In experiment [5] the test system is barnyardgrass (Echinochloa crus-galli L.). Described as above. Conditions: 21st to 22nd day after application, visual, read-out: Growth inhibition rate (%) Barnyardgrass.
Text: as §3, §4

Experiment [6] concerns soybean (Glycine max Merr.). The description is as above. Conditions: 21st to 22nd day after application, visual, read-out: Growth inhibition rate (%) Soybean.
Text: as §3, §4

For experiment [7], the system named is velvetleaf (Abutilon theophrasti MEDIC.). The experiment is described as above. As to conditions: 21st to 22nd day after application, visual, read-out: Growth inhibition rate (%) Velvetleaf.
Text: as §3, §4

Experiment [8] deals with rice (Oryza sativa L.). The experiment is described as above. As to conditions: 21st to 22nd day after application, visual, read-out: Growth inhibition rate (%) Rice.
Text: as §3, §4

Experiment [9] has as its system redroot pigweed (Amaranthus retroflexus L.). Described as above. Conditions: 21st to 22nd day after application, visual, read-out: Growth inhibition rate (%) Redroot pigweed.
Text: as §3, §4

Experiment [10] relates to crabgrass (Digitaria sanquinalis L.). The experiment is described as above. Conditions: 21st to 22nd day after application, visual, read-out: Growth inhibition rate (%) Crabgrass.
Text: as §3, §4

The subject of experiment [11] is corn (Zea mays L.). Described as above. Conditions: 21st to 22nd day after application, visual, read-out: Growth inhibition rate (%) Corn.
Text: as §3, §4

Experiment [12] concerns wheat (Triticum spp.). The experiment is described as above. Conditions: 21st to 22nd day after application, visual, read-out: Growth inhibition rate (%) Wheat.
Text: as §3, §4

In experiment [13] the test system is green foxtail (Setaria viridis L.). Described as above. As to conditions: 21st to 22nd day after application, visual, read-out: Growth inhibition rate (%) Green foxtail.
Text: as §3, §4

Experiment [14] deals with barnyardgrass (Echinochloa crus-galli L.). In words: Test Example 1, foliar treatment in upland pots. As to conditions: 20th to 22nd day after application, visual, read-out: Growth inhibition rate (%) Barnyardgrass. From the text: (§5) Upland field soil was put into a 1/170,000 hectare pot, and seeds of various plants were sown. When the respective plants reached predetermined leaf stage ((1) barnyardgrass (Echinochloa crus-galli L.): 1.2 to 3.0 leaf stage, (2) crabgrass (Digitaria sanguinalis L.): 1.0 to 3.0 leaf stage, (3) green foxtail (Setaria viridis L.): 1.5 to 3.0 leaf stage, (4) redroot pigweed (Amaranthus retroflexus L.): cotyledon stage to 1.5 leaf stage, (5) prickly sida (Sida spinosa L.): cotyledon stage to 2.0 leaf stage, (6) velvetleaf (Abutilon theophrasti MEDIC.): cotyledon stage to 1.3 leaf stage, (7) rice (Oryza sativa L.): 1.2 to 2.5 leaf stage, (8) corn (Zea mays L.): 2.0 to 3.3 leaf stage, (9) soybean (Glycine max Merr.): primary leaf stage to 0.3 leaf stage) and wheat (Triticum spp.): 2.0 to 3.0 leaf stage, wettable powders or emulsifiable concentrates of the compounds of the present invention prepared in accordance with a conventional preparation method, were weighed so that the active ingredients became the prescribed amounts, and diluted with water in an amount corresponding to 500 liter per 1 hectare (containing 0.1 vol % of an agricultural spreader (“KUSARINOH”, manufactured by NIHON NOHYAKU CO., LTD.)). The spray solutions thus prepared were applied for foliar treatment by a small sprayer.
(§6) On the 20th to 22nd day after application, the state of growth of the respective plants was visually observed, and the herbicidal effect was evaluated by a growth inhibition rate (%) of 0 (equivalent to the non-treated area) to 100% (complete kill).

Experiment [15] concerns soybean (Glycine max Merr.). In words: Test Example 1, foliar treatment in upland pots. Conditions: 20th to 22nd day after application, visual, read-out: Growth inhibition rate (%) Soybean.
Text: as §5, §6

Experiment [16] concerns velvetleaf (Abutilon theophrasti MEDIC.). In words: Test Example 1, foliar treatment in upland pots. Conditions: 20th to 22nd day after application, visual, read-out: Growth inhibition rate (%) Velvetleaf.
Text: as §5, §6

For experiment [17], the system named is crabgrass (Digitaria sanguinalis L.). In words: Test Example 1, foliar treatment in upland pots. Conditions: 20th to 22nd day after application, visual, read-out: Growth inhibition rate (%) Crabgrass.
Text: as §5, §6

For experiment [18], the system named is rice (Oryza sativa L.). In words: Test Example 1, foliar treatment in upland pots. As to conditions: 20th to 22nd day after application, visual, read-out: Growth inhibition rate (%) Rice.
Text: as §5, §6

Experiment [19] deals with redroot pigweed (Amaranthus retroflexus L.). In words: Test Example 1, foliar treatment in upland pots. As to conditions: 20th to 22nd day after application, visual, read-out: Growth inhibition rate (%) Redroot pigweed.
Text: as §5, §6

Experiment [20] concerns wheat (Triticum spp.). In words: Test Example 1, foliar treatment in upland pots. As to conditions: 20th to 22nd day after application, visual, read-out: Growth inhibition rate (%) Wheat.
Text: as §5, §6

In experiment [21] the test system is green foxtail (Setaria viridis L.). In words: Test Example 1, foliar treatment in upland pots. As to conditions: 20th to 22nd day after application, visual, read-out: Growth inhibition rate (%) Green foxtail.
Text: as §5, §6

The subject of experiment [22] is rice (Oryza sativa L.) (var.: Nihonbare). In words: Test Example 3, paddy field pot, transplanted rice. Conditions: applied 4th day after transplantation, 20th to 23rd day after application, read-out: Growth inhibition rate (%) Rice.
Text: as §1, §2

Experiment [23] deals with prickly sida (Sida spinosa L.). In words: Test Example 1, foliar treatment in upland pots. As to conditions: 20th to 22nd day after application, visual, read-out: Growth inhibition rate (%) Prickly sida.
Text: as §5, §6

Experiment [24] deals with corn (Zea mays L.). In words: Test Example 1, foliar treatment in upland pots. As to conditions: 20th to 22nd day after application, visual, read-out: Growth inhibition rate (%) Corn.
Text: as §5, §6

One may read the inhibition as the drop in the measured response relative to a control, in per cent. Take `CCOCc1c(S(C)(=O)=O)ccc(C(=O)c2cnn(C)c2OC(C)OC(=O)OC)c1C` (stereo not drawn) [Compound No. 1-1, 1-(4-(3-(Ethoxymethyl)-2-methyl-4-(methylsulfonyl)benzoyl)-1-methyl-1H-pyrazol-5-yloxy)ethyl methyl carbonate]: the inhibition at 63 g/ha in [1] is 100%; in [2] it was 70%; in [3], 90%; in experiment [22] it was 10%. The inhibition at 250 g/ha was determined as 90% in experiment [4]; 100% in experiment [5]; 20% in experiment [6]; 98% in experiment [7]; 95% in the experiment on rice (Oryza sativa L.) [8]; 90% in experiment [9]. The inhibition at 250 g/ha was 100% in [10], 10% with corn (Zea mays L.) [11], 20% with wheat (Triticum spp.) [12] and 98% in experiment [13]. Also, the inhibition at 7 g/ha in [14] amounted to 95%; in [15], 70%; in experiment [16], 50%; in experiment [17], 90%; in the experiment with rice (Oryza sativa L.) [18] it was 20%; in [19] it was 60%. Besides, the inhibition at 7 g/ha in the experiment on wheat (Triticum spp.) [20] was found to be 0%; in experiment [21], 60%.

`CCn1ncc(C(=O)c2ccc(S(C)(=O)=O)c(C(=O)OC)c2C)c1OC(C)OC(=O)OC` (stereo not drawn) [Compound No. 2-2, Methyl 3-(5-(1-(methoxycarbonyloxy)ethoxy)-1-ethyl-1H-pyrazole-4-carbonyl)-2-methyl-6-(methylsulfonyl)benzoate]: the inhibition at 63 g/ha in [1] turned out to be 100%; in experiment [2] it was 80%; in [3], 90%; in [22], 80%. Also, the inhibition at 7 g/ha in experiment [23] worked out at 70%; in [14] it was 98%; in experiment [16] it was 95%; in experiment [17], 80%; in the experiment with rice (Oryza sativa L.) [18] it was 50%; in [19], 98%. Besides, the inhibition at 7 g/ha was 0% in the experiment on corn (Zea mays L.) [24], 0% in the experiment with wheat (Triticum spp.) [20] and 80% in [21].

Turning to `COCc1c(S(C)(=O)=O)ccc(C(=O)c2cnn(C)c2OC(C)OC(=O)OC)c1C` (stereo not drawn) [Compound No. 1-3, 1-(4-(3-(Methoxymethyl)-2-methyl-4-(methylsulfonyl)benzoyl)-1-methyl-1H-pyrazol-5-yloxy)ethyl methyl carbonate], the inhibition at 63 g/ha in experiment [1] was 100%; in [2], 70%; in experiment [3] it was 70%; in experiment [22] it was 40%. Also, the inhibition at 250 g/ha is 95% in [4]; 98% in experiment [5]; 60% in [6]; 100% in experiment [7]; 98% in the experiment on rice (Oryza sativa L.) [8]; 98% in experiment [9]. Further, the inhibition at 250 g/ha worked out at 98% in experiment [10], 20% in the experiment with corn (Zea mays L.) [11], 10% in the experiment on wheat (Triticum spp.) [12] and 98% in experiment [13]. Moreover, the inhibition at 7 g/ha in [14] worked out at 90%; in [15], 70%; in [16] it was 75%; in experiment [17], 95%; in the experiment on rice (Oryza sativa L.) [18], 60%; in experiment [19], 80%. Besides, the inhibition at 7 g/ha in the experiment on wheat (Triticum spp.) [20] was 0%; in experiment [21], 80%.
